According to ChEMBL document CHEMBL1139489, “Design and NMR characterization of active analogues of compstatin containing non-natural amino acids” (J Med Chem, 2005):
pIC50: −log10 of the molar value. Positions of bridges follow the written chain, without caps; N, C: chain ends. Non-standard residues stand in square brackets, D forms with d. Residues, ends and D or L forms follow the SMILES beside them. Abu = CC[C@H](N)C(=O)O

Target: Complement C3 (Homo sapiens, UniProt P01024)
Test: Inhibitory concentration for human complement component C3 activation

Sequence of Complement C3 (P01024 23-667 limits assumed): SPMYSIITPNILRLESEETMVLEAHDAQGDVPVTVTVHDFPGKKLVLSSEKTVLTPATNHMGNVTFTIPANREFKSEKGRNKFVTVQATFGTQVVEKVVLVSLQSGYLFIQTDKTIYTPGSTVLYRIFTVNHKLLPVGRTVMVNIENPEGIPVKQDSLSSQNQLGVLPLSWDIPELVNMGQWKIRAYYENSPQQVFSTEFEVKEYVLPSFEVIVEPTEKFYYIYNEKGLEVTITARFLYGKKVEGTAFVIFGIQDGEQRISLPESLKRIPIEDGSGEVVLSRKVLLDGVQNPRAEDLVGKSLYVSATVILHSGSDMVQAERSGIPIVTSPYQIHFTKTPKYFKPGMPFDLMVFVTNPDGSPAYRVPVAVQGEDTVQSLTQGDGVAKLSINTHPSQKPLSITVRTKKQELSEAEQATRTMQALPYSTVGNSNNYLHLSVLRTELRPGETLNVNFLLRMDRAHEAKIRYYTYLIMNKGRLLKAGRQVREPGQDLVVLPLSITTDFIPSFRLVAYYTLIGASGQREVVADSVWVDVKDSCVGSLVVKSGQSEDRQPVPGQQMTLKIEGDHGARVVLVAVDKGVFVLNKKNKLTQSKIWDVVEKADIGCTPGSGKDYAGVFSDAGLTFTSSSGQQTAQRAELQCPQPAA
Sequence of Complement C3 (P01024 672-1663 limits assumed): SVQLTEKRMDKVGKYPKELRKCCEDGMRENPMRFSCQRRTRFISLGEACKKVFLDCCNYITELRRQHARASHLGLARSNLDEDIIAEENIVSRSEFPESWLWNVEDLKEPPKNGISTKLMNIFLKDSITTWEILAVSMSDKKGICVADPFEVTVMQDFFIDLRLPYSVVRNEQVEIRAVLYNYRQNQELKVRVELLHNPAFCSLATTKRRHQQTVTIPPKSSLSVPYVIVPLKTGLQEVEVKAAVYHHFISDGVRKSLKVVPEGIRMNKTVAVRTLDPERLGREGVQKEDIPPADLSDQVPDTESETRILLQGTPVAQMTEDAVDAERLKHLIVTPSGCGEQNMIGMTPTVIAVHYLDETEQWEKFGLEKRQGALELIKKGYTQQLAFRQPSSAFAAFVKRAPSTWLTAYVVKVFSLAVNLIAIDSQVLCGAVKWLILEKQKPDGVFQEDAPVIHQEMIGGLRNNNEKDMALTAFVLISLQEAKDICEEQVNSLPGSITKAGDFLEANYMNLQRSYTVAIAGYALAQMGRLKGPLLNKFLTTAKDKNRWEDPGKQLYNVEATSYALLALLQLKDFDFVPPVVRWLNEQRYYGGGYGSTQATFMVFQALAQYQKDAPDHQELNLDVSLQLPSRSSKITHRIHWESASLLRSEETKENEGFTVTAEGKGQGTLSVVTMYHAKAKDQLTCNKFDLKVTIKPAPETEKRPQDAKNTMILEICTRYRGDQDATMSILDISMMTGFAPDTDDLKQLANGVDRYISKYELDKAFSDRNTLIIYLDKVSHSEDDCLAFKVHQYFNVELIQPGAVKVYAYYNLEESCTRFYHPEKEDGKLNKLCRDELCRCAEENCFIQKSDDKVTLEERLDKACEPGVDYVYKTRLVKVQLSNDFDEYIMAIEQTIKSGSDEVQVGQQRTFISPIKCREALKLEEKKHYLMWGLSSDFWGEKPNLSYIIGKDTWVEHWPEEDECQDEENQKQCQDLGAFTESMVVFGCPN

| Compound | pIC50 |
| --- | --- |
| CC[C@H](C)[C@H](NC(=O)[C@@H]1CSSC[C@H](NC(=O)[C@@H](NC(C)=O)[C@@H](C)CC)C(=O)N[C@@H](C(C)C)C(=O)N[C@H](Cc2ccc(O)cc2)C(=O)N[C@@H](CCC(N)=O)C(=O)N[C@@H](CC(=O)O)C(=O)N[C@@H](Cc2c[nH]c3ccccc23)C(=O)NCC(=O)N[C@@H](C)C(=O)N[C@@H](Cc2c[nH]cn2)C(=O)N[C@@H](CCCN=C(N)N)C(=O)N1)C(N)=O | < 3.00 |
| CC[C@H](C)[C@H](NC(=O)[C@@H]1CSSC[C@H](NC(=O)[C@@H](NC(C)=O)[C@@H](C)CC)C(=O)N[C@@H](C(C)C)C(=O)N[C@@H](Cc2ccc(OP(=O)(O)O)cc2)C(=O)N[C@@H](CCC(N)=O)C(=O)N[C@@H](CC(=O)O)C(=O)N[C@@H](Cc2c[nH]c3ccccc23)C(=O)NCC(=O)N[C@@H](C)C(=O)N[C@@H](Cc2c[nH]cn2)C(=O)N[C@@H](CCCN=C(N)N)C(=O)N1)C(N)=O | 5.02 |
| CC[C@H](C)[C@H](NC(C)=O)C(=O)N[C@H]1CSSC[C@@H](C(=O)N[C@H](C(=O)O)[C@@H](C)O)NC(=O)[C@H](CCCNC(=N)N)NC(=O)[C@H](Cc2cnc[nH]2)NC(=O)[C@H](C)NC(=O)CNC(=O)[C@H](Cc2c[nH]c3ccccc23)NC(=O)[C@H](CC(=O)O)NC(=O)[C@H](CCC(N)=O)NC(=O)[C@H](C2Cc3ccccc3C2)NC(=O)[C@H](C(C)C)NC1=O | 5.82 |
| CC[C@H](C)[C@H](NC(C)=O)C(=O)N[C@H]1CSSC[C@@H](C(=O)N[C@H](C(=O)O)[C@@H](C)O)NC(=O)[C@H](CCCN=C(N)N)NC(=O)[C@H](Cc2c[nH]cn2)NC(=O)[C@H](C)NC(=O)CNC(=O)[C@H](Cc2c[nH]c3ccccc23)NC(=O)[C@H](CC(=O)O)NC(=O)[C@H](CCC(N)=O)NC(=O)[C@H](Cc2ccc(C(=O)c3ccccc3)cc2)NC(=O)[C@H](C(C)C)NC1=O | 5.96 |
| CC[C@H](C)[C@H](NC(C)=O)C(=O)N[C@H]1CSSC[C@@H](C(=O)N[C@H](C(N)=O)[C@@H](C)O)NC(=O)[C@H](CCCNC(=N)N)NC(=O)[C@H](Cc2cnc[nH]2)NC(=O)[C@H](Cc2cnc[nH]2)NC(=O)CNC(=O)[C@H](Cc2c[nH]c3ccccc23)NC(=O)[C@H](CC(=O)O)NC(=O)[C@H](CCC(N)=O)NC(=O)[C@H](Cc2cnc[nH]2)NC(=O)[C@H](C(C)C)NC1=O | 4.98 |
| CC[C@H](C)[C@H](NC(C)=O)C(=O)N[C@H]1CSSC[C@@H](C(=O)N[C@H](C(N)=O)[C@@H](C)O)NC(=O)[C@H](CCCN=C(N)N)NC(=O)[C@H](Cc2c[nH]cn2)NC(=O)[C@H](Cc2c[nH]cn2)NC(=O)CNC(=O)[C@H](Cc2c[nH]c3ccccc23)NC(=O)[C@H](CC(=O)O)NC(=O)[C@H](CCC(N)=O)NC(=O)[C@H](CO)NC(=O)[C@H](C(C)C)NC1=O | 4.29 |
| CC[C@H](C)[C@H](NC(C)=O)C(=O)N[C@H]1CSSC[C@@H](C(=O)N[C@H](C(=O)O)[C@@H](C)O)NC(=O)[C@H](CCCN=C(N)N)NC(=O)[C@H](Cc2c[nH]cn2)NC(=O)[C@H](C)NC(=O)CNC(=O)[C@H](Cc2c[nH]c3ccccc23)NC(=O)[C@H](CC(=O)O)NC(=O)[C@H](CCC(N)=O)NC(=O)[C@H](CC2CCCCC2)NC(=O)[C@H](C(C)C)NC1=O | 4.32 |
| CC[C@H](C)[C@H](NC(C)=O)C(=O)N[C@H]1CSSC[C@@H](C(=O)N[C@H](C(=O)O)[C@@H](C)O)NC(=O)[C@H](CCCN=C(N)N)NC(=O)[C@H](Cc2c[nH]cn2)NC(=O)[C@H](C)NC(=O)CNC(=O)[C@H](Cc2c[nH]c3ccccc23)NC(=O)[C@H](CC(=O)O)NC(=O)[C@H](CCC(N)=O)NC(=O)[C@H](Cc2csc3ccccc23)NC(=O)[C@H](C(C)C)NC1=O | 6.10 |
| CC[C@H](C)[C@H](NC(C)=O)C(=O)N[C@H]1CSSC[C@@H](C(=O)N[C@H](C(=O)O)[C@@H](C)O)NC(=O)[C@H](CCCN=C(N)N)NC(=O)[C@H](Cc2c[nH]cn2)NC(=O)[C@H](C)NC(=O)CNC(=O)[C@H](Cc2c[nH]c3ccccc23)NC(=O)[C@H](CC(=O)O)NC(=O)[C@H](CCC(N)=O)NC(=O)[C@H](Cc2cccc3ccccc23)NC(=O)[C@H](C(C)C)NC1=O | 5.74 |
| CC[C@H](C)[C@H](NC(C)=O)C(=O)N[C@H]1CSSC[C@@H](C(=O)N[C@H](C(N)=O)[C@@H](C)O)NC(=O)[C@H](CCCNC(=N)N)NC(=O)[C@H](Cc2cnc[nH]2)NC(=O)[C@H](Cc2cnc[nH]2)NC(=O)CNC(=O)[C@H](Cc2c[nH]c3ccccc23)NC(=O)[C@H](CC(=O)O)NC(=O)[C@H](CCC(N)=O)NC(=O)[C@H](Cc2c[nH]c3ccccc23)NC(=O)[C@H](C(C)C)NC1=O | 5.66 |
| CC[C@H](C)[C@H](NC(C)=O)C(=O)N[C@H]1CSSC[C@@H](C(N)=O)NC(=O)[C@H](CCCNC(=N)N)NC(=O)[C@H](Cc2cnc[nH]2)NC(=O)[C@H](Cc2cnc[nH]2)NC(=O)CNC(=O)[C@H](Cc2c[nH]c3ccccc23)NC(=O)[C@@H](CC(=O)O)NC(=O)[C@H](CCC(N)=O)NC(=O)[C@H](C(C)C)NC(=O)[C@H](C(C)C)NC1=O | < 3.00 |
| CC[C@H](C)[C@H](NC(C)=O)C(=O)N[C@H]1CSSC[C@@H](C(=O)N[C@H](C(N)=O)[C@@H](C)O)NC(=O)[C@H](CCCN=C(N)N)NC(=O)[C@H](Cc2c[nH]cn2)NC(=O)[C@H](C)NC(=O)CNC(=O)[C@H](Cc2c[nH]c3ccccc23)NC(=O)[C@H](CC(=O)O)NC(=O)[C@H](CCC(N)=O)NC(=O)[C@H](Cc2csc3ccccc23)NC(=O)[C@H](C(C)C)NC1=O | 6.10 |
| CC[C@H](C)[C@H](NC(C)=O)C(=O)N[C@H]1CSSC[C@@H](C(=O)N[C@H](C(N)=O)[C@@H](C)O)NC(=O)[C@H](CCCNC(=N)N)NC(=O)[C@H](Cc2cnc[nH]2)NC(=O)[C@H](Cc2cnc[nH]2)NC(=O)CNC(=O)[C@H](Cc2c[nH]c3ccccc23)NC(=O)[C@H](CC(=O)O)NC(=O)[C@H](CCC(N)=O)NC(=O)[C@H]([C@@H](C)O)NC(=O)[C@H](C(C)C)NC1=O | 4.17 |
| CC[C@H](C)[C@H](NC(C)=O)C(=O)N[C@H]1CSSC[C@@H](C(=O)N[C@H](C(N)=O)[C@@H](C)O)NC(=O)[C@H](CCCNC(=N)N)NC(=O)[C@H](Cc2c[nH]cn2)NC(=O)[C@H](C)NC(=O)CNC(=O)[C@H](Cc2c[nH]c3ccccc23)NC(=O)[C@H](CC(=O)O)NC(=O)[C@H](CCC(N)=O)NC(=O)[C@H](Cc2ccc3ccccc3c2)NC(=O)[C@H](C(C)C)NC1=O | 6.30 |
| CC[C@H](C)[C@H](NC(C)=O)C(=O)N[C@H]1CSSC[C@@H](C(=O)N[C@H](C(N)=O)[C@@H](C)O)NC(=O)[C@H](CCCN=C(N)N)NC(=O)[C@H](Cc2c[nH]cn2)NC(=O)[C@H](Cc2c[nH]cn2)NC(=O)CNC(=O)[C@H](Cc2c[nH]c3ccccc23)NC(=O)[C@H](CC(=O)O)NC(=O)[C@H](CCC(N)=O)NC(=O)[C@H](Cc2ccccc2)NC(=O)[C@H](C(C)C)NC1=O | 4.99 |
| CC[C@H](C)[C@H](NC(C)=O)C(=O)N[C@H]1CSSC[C@@H](C(=O)N[C@H](C(N)=O)[C@@H](C)O)NC(=O)[C@H](CCCNC(=N)N)NC(=O)[C@H](Cc2cnc[nH]2)NC(=O)[C@H](C)NC(=O)CNC(=O)[C@H](Cc2c[nH]c3ccccc23)NC(=O)[C@H](CC(=O)O)NC(=O)[C@H](CCC(N)=O)NC(=O)[C@H](Cc2ccc(C(=O)c3ccccc3)cc2)NC(=O)[C@H](C(C)C)NC1=O | 6.22 |
| CC[C@H](C)[C@H](NC(C)=O)C(=O)N[C@H]1CSSC[C@@H](C(=O)N[C@H](C(N)=O)[C@@H](C)O)NC(=O)[C@H](CCCN=C(N)N)NC(=O)[C@H](Cc2c[nH]cn2)NC(=O)[C@H](C)NC(=O)CNC(=O)[C@H](Cc2c[nH]c3ccccc23)NC(=O)[C@H](CC(=O)O)NC(=O)[C@H](CCC(N)=O)NC(=O)[C@H](Cc2ccc(O)cc2)NC(=O)[C@H](C(C)C)NC1=O | 5.42 |
| CC[C@H](C)[C@H](NC(C)=O)C(=O)N[C@H]1CSSC[C@@H](C(N)=O)NC(=O)[C@H](CCCN=C(N)N)NC(=O)[C@H](Cc2c[nH]cn2)NC(=O)[C@H](Cc2c[nH]cn2)NC(=O)CNC(=O)[C@H](Cc2c[nH]c3ccccc23)NC(=O)[C@H](CC(=O)O)NC(=O)[C@@H](CCC(N)=O)NC(=O)[C@H](C(C)C)NC(=O)[C@H](C(C)C)NC1=O | < 3.00 |
| CC[C@H](C)[C@H](NC(C)=O)C(=O)N[C@H]1CSSC[C@@H](C(=O)N[C@H](C(=O)O)[C@@H](C)O)NC(=O)[C@H](CCCN=C(N)N)NC(=O)[C@H](Cc2c[nH]cn2)NC(=O)[C@H](C)NC(=O)CNC(=O)[C@H](Cc2c[nH]c3ccccc23)NC(=O)[C@H](CC(=O)O)NC(=O)[C@H](CCC(N)=O)NC(=O)[C@H](CC2CNc3ccccc32)NC(=O)[C@H](C(C)C)NC1=O (some centres undefined) | 4.99 |
| CC[C@H](C)[C@H](NC(C)=O)C(=O)N[C@H]1CSSC[C@@H](C(=O)N[C@H](C(=O)O)[C@@H](C)O)NC(=O)[C@H](CCCNC(=N)N)NC(=O)[C@H](Cc2cnc[nH]2)NC(=O)[C@H](C)NC(=O)CNC(=O)[C@H](Cc2c[nH]c3ccccc23)NC(=O)[C@H](CC(=O)O)NC(=O)[C@H](CCC(N)=O)NC(=O)[C@H](Cc2ccc3ccccc3c2)NC(=O)[C@H](C(C)C)NC1=O | 5.85 |
| CC[C@H](C)[C@H](NC(C)=O)C(=O)N[C@H]1CSSC[C@@H](C(=O)N[C@H](C(N)=O)[C@@H](C)O)NC(=O)[C@H](CCCNC(=N)N)NC(=O)[C@H](Cc2cnc[nH]2)NC(=O)[C@H](Cc2c[nH]c3ccccc23)NC(=O)CNC(=O)[C@H](Cc2c[nH]c3ccccc23)NC(=O)[C@H](CC(=O)O)NC(=O)[C@H](CCC(N)=O)NC(=O)[C@H](Cc2c[nH]c3ccccc23)NC(=O)[C@H](C(C)C)NC1=O | 5.51 |
| CC[C@H](C)[C@H](NC(C)=O)C(=O)N[C@H]1CSSC[C@@H](C(=O)N[C@H](C(N)=O)[C@@H](C)O)NC(=O)[C@H](CCCNC(=N)N)NC(=O)[C@H](Cc2c[nH]cn2)NC(=O)[C@H](Cc2c[nH]cn2)NC(=O)CNC(=O)[C@H](Cc2c[nH]c3ccccc23)NC(=O)[C@H](CC(=O)O)NC(=O)[C@H](CCC(N)=O)NC(=O)[C@H](C(C)C)NC(=O)[C@H](C(C)C)NC1=O | 4.49 |
| CC[C@@H]1NC(=O)CNC(=O)[C@H](Cc2c[nH]c3ccccc23)NC(=O)[C@H](CC(=O)O)NC(=O)[C@H](CCC(N)=O)NC(=O)[C@H](Cc2c[nH]c3ccccc23)NC(=O)[C@H](C(C)C)NC(=O)[C@@H](NC(=O)[C@@H](NC(C)=O)[C@@H](C)CC)CSSC[C@@H](C(=O)N[C@H](C(N)=O)[C@@H](C)O)NC(=O)[C@H](CCCN=C(N)N)NC(=O)[C@H](Cc2c[nH]cn2)NC1=O (Ac-ICVWQDWG[Abu]HRCT-NH2; disulfide 2-12) | 5.82 |
| CC[C@H](C)[C@H](NC(C)=O)C(=O)N[C@H]1CSSC[C@@H](C(=O)N[C@H](C(N)=O)[C@@H](C)O)NC(=O)[C@H](CCCNC(=N)N)NC(=O)[C@H](Cc2cnc[nH]2)NC(=O)[C@H](C)NC(=O)CNC(=O)[C@H](Cc2c[nH]c3ccccc23)NC(=O)[C@H](CC(=O)O)NC(=O)[C@H](CCC(N)=O)NC(=O)[C@H](C(C)C)NC(=O)[C@H](C(C)C)NC1=O | 4.91 |
